Source: patent US9611289B2, “Farnesoid X receptor modulators” (Intercept Pharmaceuticals, Inc., priority 2013, dated 2017)
In brackets after ≈: the same amount, converted by molar mass. Structures can show the parent of a compound that is named as a salt. Where two headings read alike, the source gives them in different places.

How the values were obtained:
[1] = 1-octanol-water partition coefficient (LogPA-); conditions: ionized species
[2] = Critical micellar concentration; type: physicochemical; conditions: […] NaCl water solution
Surface tension at CMC = type: physicochemical; conditions: […] NaCl water solution
PR = PR (Homo sapiens, UniProt P06401); test: AlphaScreen nuclear receptor activation; type: biochemical
FXR target genes = test: Quantitative RT-PCR of FXR target genes in HepG2 cells; type: cell-based, human; conditions: 1 μM, overnight
CAR = CAR (Homo sapiens, UniProt Q14994); conditions: read-out: CAR Activation EC50; *inverse agonist; taken from Rizzo et al. 2010; cited from earlier work
PXR [3] = target: T1, PXR (Homo sapiens, UniProt O75469); conditions: taken from Rizzo et al. 2010; cited from earlier work
T1 sequence (O75469 1-434): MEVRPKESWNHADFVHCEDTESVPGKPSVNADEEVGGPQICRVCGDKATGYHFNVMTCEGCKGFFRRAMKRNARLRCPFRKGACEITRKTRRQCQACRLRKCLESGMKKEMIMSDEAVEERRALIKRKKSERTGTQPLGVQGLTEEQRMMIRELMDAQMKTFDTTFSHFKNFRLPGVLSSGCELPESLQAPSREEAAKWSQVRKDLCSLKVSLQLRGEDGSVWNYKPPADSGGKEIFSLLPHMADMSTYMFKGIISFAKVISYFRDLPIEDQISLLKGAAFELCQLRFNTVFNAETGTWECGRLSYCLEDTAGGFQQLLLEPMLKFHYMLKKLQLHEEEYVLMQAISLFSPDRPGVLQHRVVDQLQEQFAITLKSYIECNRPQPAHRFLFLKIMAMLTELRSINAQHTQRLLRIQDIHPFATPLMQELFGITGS

CYP1A2 = target: T2, CYP1A2 (Homo sapiens, UniProt P05177); test: biochemical
T2 sequence (P05177 1-516): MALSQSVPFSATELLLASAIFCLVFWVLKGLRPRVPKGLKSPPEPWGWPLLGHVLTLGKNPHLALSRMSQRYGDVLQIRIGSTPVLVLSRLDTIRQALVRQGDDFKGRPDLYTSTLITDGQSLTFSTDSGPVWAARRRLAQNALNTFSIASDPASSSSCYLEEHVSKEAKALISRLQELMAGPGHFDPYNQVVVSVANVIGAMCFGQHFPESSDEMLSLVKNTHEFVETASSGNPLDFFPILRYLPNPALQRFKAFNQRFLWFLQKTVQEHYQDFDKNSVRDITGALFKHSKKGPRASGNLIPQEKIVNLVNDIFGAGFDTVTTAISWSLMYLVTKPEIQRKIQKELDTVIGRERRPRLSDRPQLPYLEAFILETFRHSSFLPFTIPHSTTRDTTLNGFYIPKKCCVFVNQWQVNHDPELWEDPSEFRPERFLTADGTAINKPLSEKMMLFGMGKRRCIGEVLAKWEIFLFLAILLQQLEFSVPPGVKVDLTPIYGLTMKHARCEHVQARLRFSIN

CYP3A4 [4] = target: T3, CYP3A4 (Homo sapiens, UniProt P08684); test: biochemical
CYP2C9 = CYP2C9 (Homo sapiens, UniProt P11712); test: biochemical
CYP2C19 = CYP2C19 (Homo sapiens, UniProt P33261); test: biochemical
CYP2D6 = CYP2D6 (Homo sapiens, UniProt P10635); test: biochemical
CYP2E1 = CYP2E1 (Homo sapiens, UniProt P05181); test: biochemical
hERG potassium channel = hERG potassium channel (Homo sapiens, UniProt Q12809); test: PREDICTOR hERG Fluorescence Polarization assay; conditions: CHO-hERG membrane preparations
CYP3A4 [5] = target: T3, CYP3A4; test: CYP450 inhibition, recombinant baculosomes, fluorescent signal; conditions: read-out: CYP3A4 (Green Substrate) IC50
HepG2 cells [6] = test: cells; conditions: Homo sapiens, HepG2, read-out: Membrane integrity EC50 (μM) (LDH measure)
PXR [7] = target: T1, PXR; test: AlphaScreen nuclear receptor activation; type: biochemical
RARα = RARα (Homo sapiens, UniProt P10276); test: AlphaScreen nuclear receptor activation; type: biochemical
HepG2 cells [8] = test: Cell viability by intracellular ATP in HepG2 cells; type: cell-based, human; conditions: 4 h, different concentrations, FIG. 6
HepG2 cells [9] = conditions: for living cells: LDH measure

With `CC[C@H]1[C@@H](O)C2C3CC[C@H]([C@H](C)C[C@H](C)C(=O)O)[C@@]3(C)CCC2[C@@]2(C)CC[C@@H](O)C[C@@H]12` (stereo partly drawn) [Compound D, 6α-ethyl-23(R)-methyl chenodeoxycholic acid] the solubility (Water solubility) was 15 µM (≈ 6.52 µg/mL) and the “LogPA−(d) 1-octanol-water partition coefficient” value [1] was 2.9.

With `C[C@H](CCC(=O)O)[C@H]1CC[C@H]2[C@@H]3[C@@H](O)C[C@@H]4C[C@H](O)CC[C@]4(C)[C@H]3CC[C@]12C` [UDCA, ursodeoxycholic acid] the “CMC(b) (mM) Critical Micellar Concentration” value (“CMC(b)” for short) [2] was 6 to 10 mM, the “STCMC(c) (Dyne/cm) Surface Tension at CMC” value (shortened to “STCMC(c)”) (Surface tension at CMC) was 50.5 Dyne/cm and the solubility (Water solubility) was 7 to 7.5 µM (≈ 2.75 to 2.94 µg/mL). For the same molecule, the “LogPA−(d) 1-octanol-water partition coefficient” value [1] was 2.2.

With `C[C@H](CCC(=O)NCCS(=O)(=O)O)[C@H]1CC[C@H]2[C@@H]3[C@@H](O)C[C@@H]4C[C@H](O)CC[C@]4(C)[C@H]3CC[C@]12C` [TUDCA, tauroursodeoxycholic acid] the “CMC(b)” value [2] was 2.2 mM and the “LogPA−(d) 1-octanol-water partition coefficient” value [1] was 1.1.

Work on `C[C@]12C[C@H](O)[C@H]3[C@@H](CCC4=CC(=O)CC[C@@]43C)[C@@H]1CC[C@@H]2C(=O)CO` [Corticosterone] yielded an EC50 (PR) of 0.05 µM.

For `CC[C@H]1[C@@H](O)[C@@H]2[C@H](CC[C@]3(C)[C@@H]([C@H](C)CCOS(=O)(=O)O)CC[C@@H]23)[C@@]2(C)CC[C@@H](O)C[C@@H]12` [Compound B, 6α-ethyl-3α,7α,23-trihydroxy-24-nor-5β-cholan-23-sulfate sodium salt], the CYP7α1 gene expression (FXR target genes) is listed as “down”, the EC50 (CAR) is listed as 44 µM and the “PXR Activation EC50 (μM)” value (PXR [3]) is listed as “No activity”. The IC50 (CYP1A2) was > 10 µM, the IC50 (CYP3A4 [4]) was > 10 µM and the IC50 (CYP2C9) was > 10 µM. The IC50 (CYP2C19) was > 10 µM, the IC50 (CYP2D6) was > 10 µM and the IC50 (CYP2E1) was > 10 µM. The “block or inhibition of the hERG potassium channel” value (hERG potassium channel) was “does not block or inhibit”, the “LogPA−(d) 1-octanol-water partition coefficient” value [1] was 2.0 and the IC50 (CYP3A4 [5]) was > 10 µM.

For `C[C@H](CCC(=O)O)[C@H]1CC[C@H]2[C@@H]3[C@H](O)C[C@@H]4C[C@H](O)CC[C@]4(C)[C@H]3CC[C@]12C` [CDCA, chenodeoxycholic acid], the “CMC(b)” value [2] was 3.2 mM, the “STCMC(c)” value (Surface tension at CMC) was 45.5 Dyne/cm and the “LogPA−(d) 1-octanol-water partition coefficient” value [1] was 2.2.

Work on `C[C@H](CCC(=O)O)[C@H]1CC[C@H]2[C@@H]3CC[C@@H]4C[C@H](O)CC[C@]4(C)[C@H]3CC[C@]12C` [LCA, lithocholic acid] yielded an EC50 (HepG2 cells [6]) of 75 ± 5 µM.

With `CC[C@H]1[C@@H](O)[C@@H]2[C@H]([C@@H](O)C[C@]3(C)[C@@H]([C@H](C)CCC(=O)O)CC[C@@H]23)[C@@]2(C)CC[C@@H](O)C[C@@H]12` [Compound 100, 3α,7α,11β-trihydroxy-6α-ethyl-5β-cholan-24-oic acid] the “PXR Activation EC50 (μM)” value (PXR [7]) was “No activity”, the “RARα Activation EC50 (μM)” value (RARα) was “No activity” and the “viable cells (ATP measurement)” value (HepG2 cells [8]) was 100%. For the same molecule, the living cells (HepG2 cells [9]; HepG2 cells) was “(100% living cells)”, the “cytotoxic effect on HepG2 cells” value (HepG2 cells [9]; LDH release) was “does not induce any cytotoxic effect” and the IC50 (CYP1A2) was > 10 µM. The IC50 (CYP3A4 [4]) was > 10 µM, the IC50 (CYP2C9) was > 10 µM and the IC50 (CYP2C19) was > 10 µM. The IC50 (CYP2D6) was > 10 µM, the IC50 (CYP2E1) was > 10 µM and the solubility (Water solubility) was 143 to 150 µM (≈ 62.4 to 65.5 µg/mL). For the same molecule, the “block or inhibition of the hERG potassium channel” value (hERG potassium channel) was “does not block or inhibit”, the “LogPA−(d) 1-octanol-water partition coefficient” value [1] was 0.8 and the IC50 (CYP3A4 [5]) was > 10 µM.

With `CC[C@H]1[C@@H](O)C2C3CCC(C(C)CC(C)C(=O)O)[C@@]3(C)[C@@H](O)CC2[C@@]2(C)CC[C@@H](O)C[C@@H]12` (stereo in doubt) [Compound C, 6α-ethyl-23(S)-methyl-3α,7α,12α trihydroxy-5β-cholan-24-oic acid] the “CMC(b)” value [2] was 2 mM, the “STCMC(c)” value (Surface tension at CMC) was 50.1 Dyne/cm and the “LogPA−(d) 1-octanol-water partition coefficient” value [1] was 1.4.

For `CC[C@H]1[C@@H](O)C2C3CC[C@H]([C@H](C)CCC(=O)O)[C@@]3(C)C[C@@H](O)C2[C@@]2(C)CC[C@@H](O)C[C@@H]12` (stereo partly drawn) [Compound 101], the “Membrane integrity EC50 (μM) (LDH measure)” value (HepG2 cells [9]; HepG2 cells) was “No toxicity” and the living cells (HepG2 cells [9]; HepG2 cells) was “(100% living cells)”.

For `CC[C@H]1[C@@H](O)C2C3C[C@H](O)[C@H]([C@H](C)CCC(=O)O)[C@@]3(C)CCC2[C@@]2(C)CC[C@@H](O)C[C@@H]12` (stereo partly drawn) [Compound E], the “CMC(b)” value [2] was 5.9 mM, the “STCMC(c)” value (Surface tension at CMC) was 52.4 Dyne/cm and the solubility (Water solubility) was 120 µM (≈ 52.4 µg/mL). The “LogPA−(d) 1-octanol-water partition coefficient” value [1] was 1.6.

In the case of `C[C@H](CCC(=O)NCCS(=O)(=O)O)[C@H]1CC[C@H]2[C@@H]3[C@H](O)C[C@@H]4C[C@H](O)CC[C@]4(C)[C@H]3CC[C@]12C` [TCDCA, taurochenodeoxycholic acid], the “CMC(b)” value [2] is reported as 3.0 mM and the “LogPA−(d) 1-octanol-water partition coefficient” value [1] is reported as 0.9.
